Results taken from EP4793271A1, “NEUROPROTECTIVE AGENT” (National Center of Neurology and Psychiatry, priority 2023, dated 2025).

Assays:
[1] = tested on: primary cultured cells of mouse fetus-derived dorsal root ganglia (DRGs); assay: Suppression of axonal degeneration after axotomy in DRG explant culture; format: cell-based; conditions: minimum concentration at which axonal degeneration was suppressed (DI 0.3 or less), 24 hours after axotomy; for minimal effective concentration: Mus musculus, read-out: Evaluation on protection against degeneration
Procedure, shortened: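 Embryonic ICR mouse DRG explants were cultured 7–8 days in nicotinamide-free neuronal medium with NGF, then axotomized by removing the cell bodies. Compound (100 pM–10 µM final, 0.1% DMSO) was added within 30 min, and neurites were imaged 24 h later. The result is the lowest concentration giving degeneration index ≤0.3.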

[2] = target: T1, nicotinamide phosphoribosyl transferase (NAMPT) (Homo sapiens, UniProt P43490); assay: NAMPT activity measurement (NMN fluorescence detection); format: biochemical; conditions: NAMPT recombinant protein, 10 µM Nam; for IC50: read-out: Evaluation on NAMPT inhibitory
T1 construct: purchased Medical & Biological Laboratories Co., Ltd. (MBL)
T1 sequence (P43490 whole entry, species assumed): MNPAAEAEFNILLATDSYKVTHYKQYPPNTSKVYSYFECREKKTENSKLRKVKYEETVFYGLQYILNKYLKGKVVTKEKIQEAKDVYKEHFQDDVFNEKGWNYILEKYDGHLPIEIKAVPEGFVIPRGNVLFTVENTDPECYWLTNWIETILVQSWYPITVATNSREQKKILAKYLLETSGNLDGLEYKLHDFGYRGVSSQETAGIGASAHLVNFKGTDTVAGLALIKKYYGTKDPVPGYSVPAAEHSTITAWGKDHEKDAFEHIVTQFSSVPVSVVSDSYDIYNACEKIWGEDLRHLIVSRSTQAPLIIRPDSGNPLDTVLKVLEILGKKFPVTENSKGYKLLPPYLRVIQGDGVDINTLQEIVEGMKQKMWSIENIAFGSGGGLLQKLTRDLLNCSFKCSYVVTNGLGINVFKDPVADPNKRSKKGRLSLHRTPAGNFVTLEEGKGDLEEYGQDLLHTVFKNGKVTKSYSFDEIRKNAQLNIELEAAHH
Procedure, shortened: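 Recombinant NAMPT reacted with 10 µM Nam, 0.5 µM PRPP, 2 µM ATP in Tris pH 7.4 buffer with MgCl2, DTT, BSA; product NMN quantified by fluorescence (ex 421/em 480 nm) after derivatization with 2-acetylbenzofuran. Compounds at 3 nM–10 µM; control-normalized signal used for IC50.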

[3] = target: T2, hSARM1 (Homo sapiens, UniProt Q6SZW1); assay: Human SARM1 activity measurement in HEK293 cells transiently transfected with ΔN-hSARM1 (PC6 fluorescent probe); format: cell-based; parameters: expressed in transfected cells; host or cells: HEK293, pcDNA3 expression vector; conditions: inhibition rate; compound 30 µM; PC6 50 µM; HEK293 cells expressing ΔN-hSARM1; approximately 48 hours from transfection; read-out: Evaluation on hSARM1 inhibitory
T2 sequence (Q6SZW1 28-724): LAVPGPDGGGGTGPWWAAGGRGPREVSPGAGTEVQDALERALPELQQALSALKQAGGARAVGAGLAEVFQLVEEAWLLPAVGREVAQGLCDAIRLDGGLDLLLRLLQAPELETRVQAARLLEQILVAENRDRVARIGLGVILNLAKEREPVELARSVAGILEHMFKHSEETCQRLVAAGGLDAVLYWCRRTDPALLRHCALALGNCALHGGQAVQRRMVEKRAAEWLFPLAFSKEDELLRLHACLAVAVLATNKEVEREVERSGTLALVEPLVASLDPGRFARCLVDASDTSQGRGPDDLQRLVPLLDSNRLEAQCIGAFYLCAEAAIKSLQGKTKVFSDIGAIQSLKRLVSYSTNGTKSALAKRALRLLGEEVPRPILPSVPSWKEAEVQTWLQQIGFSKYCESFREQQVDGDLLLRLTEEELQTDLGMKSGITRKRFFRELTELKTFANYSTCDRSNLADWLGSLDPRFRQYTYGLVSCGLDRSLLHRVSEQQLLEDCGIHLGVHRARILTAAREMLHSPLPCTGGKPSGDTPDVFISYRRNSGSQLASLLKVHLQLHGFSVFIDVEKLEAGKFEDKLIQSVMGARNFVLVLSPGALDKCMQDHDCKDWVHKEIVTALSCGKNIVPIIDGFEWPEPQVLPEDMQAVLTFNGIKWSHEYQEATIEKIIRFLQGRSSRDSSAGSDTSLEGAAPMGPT
Procedure, shortened: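 HEK293 cells in nicotinamide-free DMEM with 5 μM nicotinamide, transiently transfected with mitochondrial-targeting-deleted ΔN-hSARM1; PC6 base-exchange fluorescent probe (50 μM) plus compound (30 μM) added ~8 h post-transfection. Fluorescence (ex 405/em 525 nm) read ~48 h from transfection; inhibition % versus transfected DMSO control, untransfected background subtracted.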

Structure (SMILES): O=C(NCCCOCCOCCCNC(=O)c1ccc2ncccc2c1)c1cccnc1 [Compound 188]
- minimal effective concentration [1]: ≤ 0.01 µM
- Evaluation on NAMPT inhibitory [2]: ○
- inhibition at 30 µM [3]: > 25%

Structure (SMILES): O=C(NCCCCCCCCOCCO)c1cccnc1 [compound 4]
- Evaluation on protection against degeneration [1]: A (A ≤ 0.01 µM)
- Evaluation on NAMPT inhibitory [2]: ○
- inhibition at 30 µM [3]: > 75%

Structure (SMILES): O=C(NCCCCCCCCOCCOCCO)c1cccnc1 [compound 6]
- minimal effective concentration [1]: ≤ 0.01 µM
- IC50 [2]: ≥ 100 nM
- inhibition at 30 µM [3]: > 75%

Structure (SMILES): O=C(NCCCCCCCCOCCOCCOCCO)c1cccnc1 [compound 8]
- minimal effective concentration [1]: ≤ 0.01 µM
- IC50 [2]: ≥ 100 nM
- inhibition at 30 µM [3]: > 50%

Structure (SMILES): C#CCOCCOCCNC(=O)c1cccnc1 [compound 11]
- minimal effective concentration [1]: 0.01 to 0.1 µM
- Evaluation on NAMPT inhibitory [2]: ○
- inhibition at 30 µM [3]: > 10%

Structure (SMILES): O=C(NCCOCCOc1ccc(CNC(=O)c2ccccc2)cc1)c1cccnc1 [compound 13]
- minimal effective concentration [1]: 0.01 to 0.1 µM
- Evaluation on NAMPT inhibitory [2]: ○
- inhibition at 30 µM [3]: > 75%

Structure (SMILES): O=C(NCCCOc1ccc(CNC(=O)c2ccccc2)cc1)c1cccnc1 [compound 15]
- minimal effective concentration [1]: ≤ 0.01 µM
- IC50 [2]: ≥ 100 nM
- inhibition at 30 µM [3]: > 75%

Structure (SMILES): O=C(/C=C/c1cccnc1)NCCCOc1ccc(CNC(=O)c2ccccc2)cc1 [compound 16]
- minimal effective concentration [1]: ≤ 0.01 µM
- IC50 [2]: ≥ 100 nM
- inhibition at 30 µM [3]: > 75%

Structure (SMILES): O=C(/C=C/c1cccnc1)NCCOCCOc1ccccc1 [compound 17]
- minimal effective concentration [1]: ≤ 0.01 µM
- IC50 [2]: ≥ 100 nM
- inhibition at 30 µM [3]: > 75%

Structure (SMILES): COc1cccc(OCCCNC(=O)/C=C/c2cccnc2)c1 [compound 18]
- minimal effective concentration [1]: ≤ 0.01 µM
- IC50 [2]: ≥ 100 nM
- inhibition at 30 µM [3]: > 75%

Structure (SMILES): COc1cccc(OCCNC(=O)/C=C/c2cccnc2)c1 [compound 19]
- minimal effective concentration [1]: ≤ 0.01 µM
- IC50 [2]: ≥ 100 nM
- inhibition at 30 µM [3]: > 75%

Structure (SMILES): CC(=O)NCc1ccc(OCCCNC(=O)c2cccnc2)cc1 [compound 20]
- minimal effective concentration [1]: 0.01 to 0.1 µM
- Evaluation on NAMPT inhibitory [2]: ○
- inhibition at 30 µM [3]: > 75%

Structure (SMILES): CC(=O)NCc1ccc(OCCOCCNC(=O)c2cccnc2)cc1 [compound 21]
- minimal effective concentration [1]: ≤ 0.01 µM
- Evaluation on NAMPT inhibitory [2]: ○
- inhibition at 30 µM [3]: > 50%

Structure (SMILES): CC(=O)NCc1ccc(OCCOCCNC(=O)/C=C/c2cccnc2)cc1 [compound 22]
- minimal effective concentration [1]: ≤ 0.01 µM
- IC50 [2]: ≥ 100 nM
- inhibition at 30 µM [3]: > 75%

Structure (SMILES): COCOc1cccc(OCCCNC(=O)c2cccnc2)c1 [compound 25]
- Evaluation on protection against degeneration [1]: B (0.01 µM < B ≤ 0.1 µM)
- Evaluation on NAMPT inhibitory [2]: ○
- inhibition at 30 µM [3]: > 75%

Structure (SMILES): O=C(NCCOCCOc1cccc(O)c1)c1cccnc1 [compound 27]
- minimal effective concentration [1]: 0.01 to 0.1 µM
- IC50 [2]: ≥ 100 nM
- inhibition at 30 µM [3]: > 75%

Structure (SMILES): COc1cccc(OCCOCCNC(=O)/C=C/c2cccnc2)c1 [compound 28]
- minimal effective concentration [1]: ≤ 0.01 µM
- IC50 [2]: ≥ 100 nM
- inhibition at 30 µM [3]: > 75%

Structure (SMILES): COCOc1cccc(OCCOCCNC(=O)c2cccnc2)c1 [compound 30]
- minimal effective concentration [1]: 0.01 to 0.1 µM
- Evaluation on NAMPT inhibitory [2]: ○
- inhibition at 30 µM [3]: > 50%

Structure (SMILES): COC(=O)c1ccc(OCCOCCNC(=O)/C=C/c2cccnc2)cc1 [compound 31]
- minimal effective concentration [1]: ≤ 0.01 µM
- IC50 [2]: ≥ 100 nM
- inhibition at 30 µM [3]: > 75%

Structure (SMILES): COC(=O)c1ccc(OCCOCCNC(=O)c2cccnc2)cc1 [compound 32]
- minimal effective concentration [1]: ≤ 0.01 µM
- Evaluation on NAMPT inhibitory [2]: ○
- inhibition at 30 µM [3]: > 50%

Structure (SMILES): O=C(NCCOCCOCCNC(=O)c1cccnc1)c1cccnc1 [compound 34]
- minimal effective concentration [1]: ≤ 0.01 µM
- Evaluation on NAMPT inhibitory [2]: ○
- inhibition at 30 µM [3]: > 75%
